This is an account of results in patent US11932657B2, “Heterocyclic compound” (priority 2018, dated 2024).

SMILES strings stand for the structures.

The target of experiment [1] is T1, aryl hydrocarbon receptor (AhR) (Homo sapiens, UniProt P35869).
T1 construct: DRE-Luc HepG2 cells subcultured in a 225 cm^2 flask; endogenous in cells; host or cells: HepG2 (ATCC), stably transfected with the reporter hCYP1A1/pGL4.27 (DRE-Luc HepG2)
T1 sequence (P35869 11-848): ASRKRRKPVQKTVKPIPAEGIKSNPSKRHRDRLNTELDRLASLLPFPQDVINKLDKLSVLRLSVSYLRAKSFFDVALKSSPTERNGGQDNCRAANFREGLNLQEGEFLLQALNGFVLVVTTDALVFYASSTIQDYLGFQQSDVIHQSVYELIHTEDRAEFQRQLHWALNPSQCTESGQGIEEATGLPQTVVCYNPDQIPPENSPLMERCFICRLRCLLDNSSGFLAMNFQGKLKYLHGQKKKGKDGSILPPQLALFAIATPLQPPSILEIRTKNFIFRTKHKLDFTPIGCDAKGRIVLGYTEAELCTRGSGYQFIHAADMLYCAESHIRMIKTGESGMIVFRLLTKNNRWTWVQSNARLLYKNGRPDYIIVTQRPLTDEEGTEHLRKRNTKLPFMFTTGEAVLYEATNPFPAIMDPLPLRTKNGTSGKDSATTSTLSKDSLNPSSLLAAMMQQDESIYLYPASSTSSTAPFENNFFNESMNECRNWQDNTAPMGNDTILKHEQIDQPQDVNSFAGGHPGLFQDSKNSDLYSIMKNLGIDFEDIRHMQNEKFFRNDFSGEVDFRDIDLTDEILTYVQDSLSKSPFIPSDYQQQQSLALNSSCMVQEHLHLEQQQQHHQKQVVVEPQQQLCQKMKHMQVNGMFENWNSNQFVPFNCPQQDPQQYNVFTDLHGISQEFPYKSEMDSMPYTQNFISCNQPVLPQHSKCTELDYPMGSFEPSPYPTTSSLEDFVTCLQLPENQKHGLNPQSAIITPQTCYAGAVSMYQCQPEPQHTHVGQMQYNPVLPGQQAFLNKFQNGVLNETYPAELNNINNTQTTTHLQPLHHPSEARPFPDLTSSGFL
Kind of experiment: AhR reporter gene assay (aryl hydrocarbon receptor antagonist activity, DRE-Luc HepG2 cells, TCDD-stimulated luciferase). Type of experiment: cell-based. The method, then:
Test Example 1 (Aryl Hydrocarbon Receptor Antagonist Activity)
An expression vector, hCYP1A1/pGL4.27 was introduced into HepG2 cells (derived from American Type Culture Collection (ATCC)) that were seeded in 6-well plates (#3810-006 (Iwaki)) at 1.2×10^6 cells/well, using Lipofectamine 3000 (#100022050 (Invitrogen)). Referring to Garrion P M et al., Fundam Appl Toxicol, 30, 194 (1996), the vector hCYP1A1/pGL4.27 incorporated the human CYP1A1 promotor region including dioxin responsive element (DRE) region of the AhR binding region into the XhoI-BglII restriction enzyme site of pGL4.27 (#E8451 (Promega)). After 24 hours, medium-1 was replaced, and after 48 hours, the medium-1 containing hygromycin B (200 to 1000 μg/mL) was subjected to drug treatment. Culturing using the medium containing hygromycin B was continued for about 1 month to clone 24 clones showing drug resistance. A cell line showing high reporter activity was selected (DRE-Luc HepG2) from drug resistant lines using as an indicator luciferase activity (Dual-Glo Luciferase substrate, #E297A (Promega)) relative to an AhR agonist, 2,3,7,8-tetrachlorodibenzo-p-dioxin (TCDD) (#ED-901-B (CIL.)).
DRE-Luc HepG2 cells subcultured in a 225 cm^2 flask (#11-0005 (Iwaki)) were washed with PBS (#1419-144 (Gibco), Lot: 1896207), and thereto was added 8 mL of Trypsin-EDTA (0.05%) (#25300-054 (Gibco)). Thereafter, an excessive liquid was removed from the mixture, and the cells were stood at room temperature for 5 minutes. Thereto was added 10 mL of medium-2, the cells were recovered through a cell strainer (#352350 (Falcon), 70 μm), and the number of cells were then counted using a hemocytometer. A cell suspension was prepared at 3×10^5 cells/mL, 100 μL/well of the cell suspension was seeded into a 96-well white plate (#136101, F96 Microwell (Nunc)), and the cells were then cultured in a CO2 incubator (5% CO2, 37° C.). After 24 hours, the medium was aspirated, and thereto was added 100 μL of an assay medium solution including the compound of the present invention, and the cells were cultured in the CO2 incubator (5% CO2, 37° C.). After 24 hours, 11 μL of an assay medium solution including 5×10^−10 M TCDD (#ED-901-B (CIL.)) was added thereto and the cells were cultured in the CO2 incubator (5% CO2, 37° C.). After 24 hours, 50 μL of a reaction substrate (#E253B, Steady-Glo Luciferase substrate (Promega)) for Firefly Luciferase enzyme reaction was added to each well, and after 5 minute-shaking, the light emission intensity was measured with Wallac ARVO 1420sx (PerkinElmer).

The test system of experiment [2] is immortalized megakaryocyte line (SeV2-MKCL). Kind of experiment: Platelet production: static culturing of immortalized megakaryocyte line. Particulars: compound final concentration 0.1 μM, static culturing 6 to 7 days, control (DMSO) set to 1; platelets = CD41, CD42b and CD42a-positive cells. Type of experiment: cell-based. The method, then:
Test Example 2 (Platelet Production: Static Culturing)
The immortalized megakaryocyte line (SeV2-MKCL) obtained according to the method described in WO 2016/204256 was washed twice with D-PBS(−) and then cultured in medium not containing doxycycline to terminate forced expression. Culturing was implemented by seeding the cells at 1 mL/well in a 24-well plate (#662160 (Greiner Rio-One)) at a seeding density of 1×10^5 cells/mL followed by static culturing in the medium indicated below.
The medium was obtained by adding the following components to IMDM serving as the basal medium (concentrations indicate final concentrations).
Culturing was implemented under conditions of 37° C. and 5% CO2. At the same time, the compound of the present invention (final concentration 0.1 μM) or DMSO (control) was added and cultured for 6 to 7 days. Thereafter, the number of platelets (CD41, CD42b, and CD42a-positive cells) was measured. The measurement method was as shown below. The same procedure was performed with the control.
A portion of the culture supernatant was harvested 6 to 7 days after culturing to terminate gene expression, and suspended with the following antibodies to stain them. eFluor 450-labeled anti-CD42a antibody (#48-0428-42 (eBioscience)) PE-labeled anti-CD42b antibody (#303906 (BioLegend)) APC-labeled anti-CD41 antibody (#303710 (BioLegend)) The number of platelets was counted using FACSVerse manufactured by BD 30 minutes after the stain reaction. In the measurement of the number of platelets, the number of cells was corrected using Flow-count beads (#7547053 (Beckman Coulter)).
The number of platelets produced from one megakaryocyte cell was calculated based on the number of platelets in the sample obtained by the FACS measurement, and the result was defined as platelet production efficiency (PLT/MK) and used for evaluation of drug efficacy of the compound. In addition, the specific activity at the time when the platelet production efficiency of the control was set to 1 was indicated as fold increase.

By IC50 is commonly meant the midpoint of a concentration-inhibition curve. A high value points to weaker potency.

Turning to `CC1(C)COc2nc3c(NCCc4ccc(O)c(-c5cccc(C#N)c5F)c4)nc(-c4cncc(C#N)c4)nc3n21` [Example 67], in experiment [1], the IC50 came to 2.4 nM. Besides, the “Static (vs veh): fold increase of platelet production efficiency (PLT/MK)” value (“Static (vs veh): fold increase” below) in experiment [2] came to 2.9. In experiment [1], `CC1(C)CSc2nc3c(NCCc4ccc(O)cc4)nc(-c4cncc(F)c4)nc3n21` [Example 97] registered a half-inhibitory concentration (IC50) of 19 nM.

In experiment [1], `CC1(C)CSc2nc3c(NCCc4ccc(O)c(-c5cccc(F)c5)c4)nc(-c4ccc5nccn5c4)nc3n21` [Example 53] displayed an IC50 of 1.2 nM. The “Static (vs veh): fold increase” value in experiment [2] is given as 5.3. As for `CC1(C)COc2nc3c(NCCc4ccc(O)c(-c5cc(F)cc(C#N)c5)c4)nc(-c4cncc(F)c4)nc3n21` [Example 56], in experiment [1], the IC50 came to 13 nM. In addition, the “Static (vs veh): fold increase” value in experiment [2] turned out to be 6.5.

`Oc1ccc(CCNc2nc(-c3cncc(F)c3)nc3c2nc2n3CCS2)cc1-c1ccccc1F` [Example 142]: the IC50 in experiment [1] amounted to 0.89 nM. With `CC1(C)CCOc2nc3c(NCCc4ccc(O)cc4)nc(-c4cncc(F)c4)nc3n21` [Example 90], in experiment [2], the “Static (vs veh): fold increase” value worked out at 2.6. On the same count and under the same terms, as for `CC1(C)CCOc2nc3c(NCCc4c[nH]c5ccccc45)nc(-c4cncc(F)c4)nc3n21` [Example 89], the figure is 5.0; as for `CC1(C)COc2nc3c(NCCc4c[nH]c5ccccc45)nc(-c4cncc(F)c4)nc3n21` [Example 82], 5.0. Turning to `Cc1cc(CCNc2nc(-c3cncc(F)c3)nc3c2nc2n3C(C)(C)CO2)ccc1O` [Example 51], in experiment [2], the “Static (vs veh): fold increase” value came to 2.6. On the same count and under the same terms, as for `C[C@@H]1CSc2nc3c(NCCc4c[nH]c5ccccc45)nc(-c4cncc(F)c4)nc3n21` [Example 102], the figure is 4.5.

Molecule `Oc1ccc(CCNc2nc(-c3cncc(F)c3)nc3c2nc2n3CCCS2)cc1-c1ccccc1F` [Example 145] had an IC50 in experiment [1] of 1.3 nM. Consider `CC1(C)CSc2nc3c(NCCc4ccc(O)c(-c5cncc(F)c5)c4)nc(-c4cncc(F)c4)nc3n21` [Example 70], for which, in experiment [1], half-maximal inhibition (IC50) was put at 4.6 nM. With `Fc1cncc(-c2nc(NCCc3c[nH]c4ccccc34)c3nc4n(c3n2)CCCO4)c1` [Example 84], in experiment [2], the “Static (vs veh): fold increase” value is given as 13. On the same count and under the same terms, to `CC1(C)COc2nc3c(NCCc4c[nH]c5ccccc45)nc(-c4ccc(F)cc4)nc3n21` [Example 114] belongs 2.2. The same measure, in the same setting: as for `CC1(C)COc2nc3c(NCCc4c[nH]c5ccccc45)nc(-c4ccccc4)nc3n21` [Example 116], the figure is 2.5; as for `CC1(C)CSc2nc3c(NCCc4c[nH]c5ccccc45)nc(-c4cncc(F)c4)nc3n21` [Example 95], 2.4; as for `CC1(C)COc2nc3c(NCCc4c[nH]c5ccccc45)nc(-c4ccc(F)c(F)c4)nc3n21` [Example 88], 3.1. The molecule `Oc1ccc(CCNc2nc(-c3cncc(F)c3)nc3c2nc2n3CCCCS2)cc1-c1ccccc1F` [Example 143] displayed an IC50 in experiment [1] of 0.6 nM. Consider `Cc1[nH]c2ccccc2c1CCNc1nc(-c2cncc(F)c2)nc2c1nc1n2C(C)(C)CO1` [Example 104], for which the “Static (vs veh): fold increase” value in experiment [2] amounted to 4.6. As to `Oc1ccc(CCNc2nc(-c3cncc(F)c3)nc3c2nc2n3CCCO2)cc1-c1ccccc1F` [Example 144], in experiment [1], inhibition was half-maximal at 4.3 nM (IC50). In the case of `CC1(C)COc2nc3c(NCCc4ccc5[nH]ccc5c4)nc(-c4cncc(F)c4)nc3n21` [Example 103], the “Static (vs veh): fold increase” value in experiment [2] came to 3.1. Same read-out and setting: to `CC1(C)COc2nc3c(NCCc4ccc(O)c(-c5cncc(C#N)c5)c4)nc(-c4cncc(F)c4)nc3n21` [Example 75] belongs 2.7; to `Fc1cncc(-c2nc(NCCc3c[nH]c4ccccc34)c3nc4n(c3n2)CCS4)c1` [Example 105], 8.2. Still for that read-out and setting: as for `Fc1cncc(-c2nc(NCCc3c[nH]c4ccccc34)c3nc4n(c3n2)CCCCS4)c1` [Example 107], the figure is 7.9; as for `CC1(C)COc2nc3c(NCCc4c[nH]c5ccccc45)nc(-c4ccnc(F)c4)nc3n21` [Example 100], 3.5; as for `CC1(C)COc2nc3c(NCCc4c[nH]c5ccccc45)nc(-c4ccccc4F)nc3n21` [Example 113], 2.5.

For `CC1(C)COc2nc3c(NCCc4ccc(O)cc4)nc(-c4cncc(F)c4)nc3n21` [Example 80], the “Static (vs veh): fold increase” value in experiment [2] came to 3.4. `Cc1cncc(-c2nc(NCCc3c[nH]c4ccccc34)c3nc4n(c3n2)C(C)(C)CO4)c1` [Example 83]: in experiment [2], the “Static (vs veh): fold increase” value came to 5.8. Still for that read-out and setting: to `CC1(C)COc2nc3c(NCCc4ccc(O)c(-c5ccc(O)cc5)c4)nc(-c4cncc(F)c4)nc3n21` [Example 19, 4-[2-[[2-(5-fluoropyridin-3-yl)-8,8-dimethyl-7H-purino[8,9-b][1,3]oxazol-4-yl]amino]ethyl]-2-(4-hydroxyphenyl)phenol] belongs 2.8. Same read-out and setting: as for `C[C@H]1CSc2nc3c(NCCc4c[nH]c5ccccc45)nc(-c4cncc(F)c4)nc3n21` [Example 106], the figure is 6.9.
